Experimental data reported in patent US20040006070A1, “Intraspinal continuous infusion of midazolam hydrochloride for the treatment of pain” (priority 2002, published 2004).
Where a name gives a salt, the structure may show the parent alone.

Assay: Bloodwork: complete blood count, electrolytes, extended blood chemistry
Type: in vivo, sheep
Method: Indirect blood pressure, pulse recording, pain testing (mechanical stimulus device, cold and warm water baths see description in procedure) and weight were taken on days 1, 3, 7, 15, 22, 29, 36, and 43. Venous blood samples (15 ml drawn from the jugular vein with Vacutainer brand blood collection tubes) for complete blood count, electrolytes, and extended blood chemistry were drawn on days 1, 15, and 43 (mild procedure only light hand restraint necessary).

[1] = Double Blinded Sheep, Chemistries, Day 15
[2] = Double Blinded Sheep, Chemistries, Day 43
[3] = sheep #84 Roadrunner, 15 mg/day, Baseline
[4] = sheep #84 Roadrunner, 15 mg/day, Day 1

SMILES: Cc1ncc2n1-c1ccc(Cl)cc1C(c1ccccc1F)=NC2 [Midazolam, midazolam hydrochloride]
- ALT [1]: 10 U/L
- AST [1]: 72 U/L
- CPK [1]: 100 U/L
- Cholesterol [1]: 74 mg/dL
- Total Bili (Double Blinded Sheep, Chemistries, Day 15, reference range 0.14-0.32): 0.1 mg/dL
- Creatinine (Double Blinded Sheep, Chemistries, Day 15, reference range 1-2.7): 1.1 mg/dL
- Albumin (Double Blinded Sheep, Chemistries, Day 15, reference range 2.4-3): 3.6 g/dL
- K+ (Double Blinded Sheep, Chemistries, Day 15, reference range 3.9-5.4): 4.8 mEq/l
- Phos (Double Blinded Sheep, Chemistries, Day 15, reference range 5-7.3): 6.4 mg/dL
- Total Prot (Double Blinded Sheep, Chemistries, Day 15, reference range 6-7.9): 7.1 g/dL
- BUN (Double Blinded Sheep, Chemistries, Day 15, reference range 8-20): 25 mg/dL
- Gamma GT (Double Blinded Sheep, Chemistries, Day 15, reference range 25-59): 87 U/L
- Glucose (Double Blinded Sheep, Chemistries, Day 15, reference range 42-76): 82 mg/dL
- Alk Phos (Double Blinded Sheep, Chemistries, Day 15, reference range 68-387): 154 U/L
- Na+ (Double Blinded Sheep, Chemistries, Day 15, reference range 139-152): 146 mEq/l
- ALT [2]: 15 U/L
- AST [2]: 78 U/L
- CPK [2]: 96 U/L
- Cholesterol [2]: 80 mg/dL
- Total Bili (Double Blinded Sheep, Chemistries, Day 43, reference range 0.14-0.32): 0.1 mg/dL
- Creatinine (Double Blinded Sheep, Chemistries, Day 43, reference range 1-2.7): 1.0 mg/dL
- Albumin (Double Blinded Sheep, Chemistries, Day 43, reference range 2.4-3): 3.6 g/dL
- K+ (Double Blinded Sheep, Chemistries, Day 43, reference range 3.9-5.4): 5.7 mEq/l
- Phos (Double Blinded Sheep, Chemistries, Day 43, reference range 5-7.3): 6.9 mg/dL
- Total Prot (Double Blinded Sheep, Chemistries, Day 43, reference range 6-7.9): 6.9 g/dL
- BUN (Double Blinded Sheep, Chemistries, Day 43, reference range 8-20): 26 mg/dL
- Gamma GT (Double Blinded Sheep, Chemistries, Day 43, reference range 25-59): 73 U/L
- Glucose (Double Blinded Sheep, Chemistries, Day 43, reference range 42-76): 70 mg/dL
- Alk Phos (Double Blinded Sheep, Chemistries, Day 43, reference range 68-387): 179 U/L
- Na+ (Double Blinded Sheep, Chemistries, Day 43, reference range 139-152): 146 mEq/l
- ALT (sheep #83, 15 mg/day, Day 1): 0 U/L
- AST (sheep #83, 15 mg/day, Day 1): 102 U/L
- Alk Phos (sheep #83, 15 mg/day, Day 1): 48 U/L
- BUN (sheep #83, 15 mg/day, Day 1): 8 mg/dL
- CPK (sheep #83, 15 mg/day, Day 1): 65 U/L
- Cholesterol (sheep #83, 15 mg/day, Day 1): 47 mg/dL
- Differential Count: Eosin (sheep #83, 15 mg/day, Day 1): 1%
- Differential Count: Lymph (sheep #83, 15 mg/day, Day 1): 55%
- Differential Count: Mono (sheep #83, 15 mg/day, Day 1): 5%
- Differential Count: Seg (sheep #83, 15 mg/day, Day 1): 39%
- Gamma GT (sheep #83, 15 mg/day, Day 1): 62 U/L
- Glucose (sheep #83, 15 mg/day, Day 1): 78 mg/dL
- Hct (sheep #83, 15 mg/day, Day 1): 37.2%
- Hgb (sheep #83, 15 mg/day, Day 1): 12.7 g/dL
- MCH (sheep #83, 15 mg/day, Day 1): 11.3 pg
- MCHC (sheep #83, 15 mg/day, Day 1): 34.0 g/dL
- MCV (sheep #83, 15 mg/day, Day 1): 33.2 fL
- Na+ (sheep #83, 15 mg/day, Day 1): 148 mEq/l
- Platlet Count (sheep #83, 15 mg/day, Day 1): 879000 µL⁻¹
- RBC (sheep #83, 15 mg/day, Day 1): 1.12e+07 µL⁻¹
- WBC (sheep #83, 15 mg/day, Day 1): 5320 µL⁻¹
- Total Bili (sheep #83, 15 mg/day, Day 1, ref 0.14-0.32): 0.1 mg/dL
- Creatinine (sheep #83, 15 mg/day, Day 1, ref 1-2.7): 1.4 mg/dL
- Albumin (sheep #83, 15 mg/day, Day 1, ref 2.4-3): 3.3 g/dL
- K+ (sheep #83, 15 mg/day, Day 1, ref 3.9-5.4): 4.2 mEq/l
- Phos (sheep #83, 15 mg/day, Day 1, ref 5-7.3): 7.1 mg/dL
- Total Prot (sheep #83, 15 mg/day, Day 1, ref 6-7.9): 6.1 g/dL
- ALT (sheep #83, 15 mg/day, Day 15): 8 U/L
- AST (sheep #83, 15 mg/day, Day 15): 52 U/L
- Alk Phos (sheep #83, 15 mg/day, Day 15): 90 U/L
- BUN (sheep #83, 15 mg/day, Day 15): 90 mg/dL
- CPK (sheep #83, 15 mg/day, Day 15): 107 U/L
- Cholesterol (sheep #83, 15 mg/day, Day 15): 65 mg/dL
- Differential Count: Eosin (sheep #83, 15 mg/day, Day 15): 1%
- Differential Count: Lymph (sheep #83, 15 mg/day, Day 15): 68%
- Differential Count: Mono (sheep #83, 15 mg/day, Day 15): 2%
- Differential Count: Seg (sheep #83, 15 mg/day, Day 15): 29%
- Gamma GT (sheep #83, 15 mg/day, Day 15): 72 U/L
- Glucose (sheep #83, 15 mg/day, Day 15): 66 mg/dL
- Hct (sheep #83, 15 mg/day, Day 15): 33.2%
- Hgb (sheep #83, 15 mg/day, Day 15): 11.5 g/dL
- MCH (sheep #83, 15 mg/day, Day 15): 11.4 pg
- MCHC (sheep #83, 15 mg/day, Day 15): 34.7 g/dL
- MCV (sheep #83, 15 mg/day, Day 15): 33.0 fL
- Na+ (sheep #83, 15 mg/day, Day 15): 147 mEq/l
- Platlet Count (sheep #83, 15 mg/day, Day 15): 296000 µL⁻¹
- RBC (sheep #83, 15 mg/day, Day 15): 1e+07 µL⁻¹
- WBC (sheep #83, 15 mg/day, Day 15): 4390 µL⁻¹
- Total Bili (sheep #83, 15 mg/day, Day 15, ref 0.14-0.32): 0.1 mg/dL
- Creatinine (sheep #83, 15 mg/day, Day 15, ref 1-2.7): 1.2 mg/dL
- Albumin (sheep #83, 15 mg/day, Day 15, ref 2.4-3): 3.3 g/dL
- K+ (sheep #83, 15 mg/day, Day 15, ref 3.9-5.4): 4.5 mEq/l
- Phos (sheep #83, 15 mg/day, Day 15, ref 5-7.3): 5.1 mg/dL
- Total Prot (sheep #83, 15 mg/day, Day 15, ref 6-7.9): 5.9 g/dL
- ALT (sheep #83, 15 mg/day, Day 43): 6 U/L
- AST (sheep #83, 15 mg/day, Day 43): 53 U/L
- Alk Phos (sheep #83, 15 mg/day, Day 43): 96 U/L
- BUN (sheep #83, 15 mg/day, Day 43): 14 mg/dL
- CPK (sheep #83, 15 mg/day, Day 43): 49 U/L
- Cholesterol (sheep #83, 15 mg/day, Day 43): 52 mg/dL
- Differential Count: Atyp lym (sheep #83, 15 mg/day, Day 43): 2%
- Differential Count: Eosin (sheep #83, 15 mg/day, Day 43): 3%
- Differential Count: Lymph (sheep #83, 15 mg/day, Day 43): 70%
- Differential Count: Mono (sheep #83, 15 mg/day, Day 43): 3%
- Differential Count: Seg (sheep #83, 15 mg/day, Day 43): 22%
- Gamma GT (sheep #83, 15 mg/day, Day 43): 54 U/L
- Glucose (sheep #83, 15 mg/day, Day 43): 83 mg/dL
- Hct (sheep #83, 15 mg/day, Day 43): 34.9%
- Hgb (sheep #83, 15 mg/day, Day 43): 11.9 g/dL
- MCH (sheep #83, 15 mg/day, Day 43): 11.1 pg
- MCHC (sheep #83, 15 mg/day, Day 43): 31.1 g/dL
- MCV (sheep #83, 15 mg/day, Day 43): 32.5 fL
- Na+ (sheep #83, 15 mg/day, Day 43): 149 mEq/l
- Platlet Count (sheep #83, 15 mg/day, Day 43): 576000 µL⁻¹
- RBC (sheep #83, 15 mg/day, Day 43): 1.07e+07 µL⁻¹
- WBC (sheep #83, 15 mg/day, Day 43): 4770 µL⁻¹
- Total Bili (sheep #83, 15 mg/day, Day 43, ref 0.14-0.32): 0.1 mg/dL
- Creatinine (sheep #83, 15 mg/day, Day 43, ref 1-2.7): 1.3 mg/dL
- Albumin (sheep #83, 15 mg/day, Day 43, ref 2.4-3): 3.6 g/dL
- K+ (sheep #83, 15 mg/day, Day 43, ref 3.9-5.4): 4.9 mEq/l
- Phos (sheep #83, 15 mg/day, Day 43, ref 5-7.3): 6.2 mg/dL
- Total Prot (sheep #83, 15 mg/day, Day 43, ref 6-7.9): 6.6 g/dL
- Differential Count: Eosin [3]: 5%
- Differential Count: Lymph [3]: 62%
- Differential Count: Mono [3]: 1%
- Differential Count: Seg [3]: 32%
- Hct [3]: 41.9%
- Hgb [3]: 15.0 g/dL
- MCH [3]: 10.7 pg
- MCHC [3]: 35.7 g/dL
- MCV [3]: 30.0 fL
- Platlet Count [3]: 721000 µL⁻¹
- RBC [3]: 1.4e+07 µL⁻¹
- WBC [3]: 5790 µL⁻¹
- ALT [4]: 9 U/L
- AST [4]: 100 U/L
- Albumin [4]: 3.3 g/dL
- Alk Phos [4]: 93 U/L
- BUN [4]: 7 mg/dL
- CPK [4]: 90 U/L
- Cholesterol [4]: 45 mg/dL
- Creatinine [4]: 1.2 mg/dL
- Differential Count: Eosin [4]: 8%
- Differential Count: Lymph [4]: 43%
- Differential Count: Mono [4]: 3%
- Differential Count: Seg [4]: 46%
- Gamma GT [4]: 51 U/L
- Glucose [4]: 69 mg/dL
- Hct [4]: 35.7%
- Hgb [4]: 12.9 g/dL
- K+ [4]: 4.8 mEq/l
- MCH [4]: 11.0 pg
- MCHC [4]: 36.1 g/dL
- MCV [4]: 30.4 fL
- Na+ [4]: 148 mEq/l
- Phos [4]: 6.2 mg/dL
- Platlet Count [4]: 962000 µL⁻¹
- RBC [4]: 1.17e+07 µL⁻¹
